Among the data in PubChem BioAssay AID328 (DTP/NCI, 2004) are T/C values, retold here.

For the assay, the system named is BDF1 mice, P388 leukemia ip, median survival T/C. The experiment in a line: NCI In Vivo Anticancer Drug Screen. Data for tumor model P388 Leukemia (intraperitoneal) in B6D2F1 (BDF1) mice. The conditions noted are these: endpoint: median survival time, higher = longer survival. The procedure, abridged: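 Read-out is survival of treated animals expressed relative to the vehicle group, as a T/C ratio.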

The mark [1] stands for this setting: dose: 100.0 mg/kg/injection, schedule: Q01DX001 (ip), vehicle: saline with Tween-80.
[2] abbreviates: dose: 50.0 mg/kg/injection, schedule: Q01DX009 (ip), vehicle: saline with Tween-80.
Setting [3] is: dose: 100.0 mg/kg/injection, schedule: Q01DX009 (ip), vehicle: saline with Tween-80.
The mark [4] stands for this setting: dose: 200.0 mg/kg/injection, schedule: Q01DX009 (ip), vehicle: saline with Tween-80.
Where [5] appears, read: dose: 400.0 mg/kg/injection, schedule: Q01DX009 (ip), vehicle: saline with Tween-80.
[6] abbreviates: dose: 400.0 mg/kg/injection, schedule: Q04DX003 (ip), vehicle: saline with Tween-80.
[7] abbreviates: dose: 12.5 mg/kg/injection, schedule: Q01DX009 (ip), vehicle: saline with Tween-80.
Where [8] appears, read: dose: 100.0 mg/kg/injection, schedule: Q01DX001 (ip), vehicle: Klucel (hydroxypropylcellulose) (HPC).
Where [9] appears, read: dose: 200.0 mg/kg/injection, schedule: Q01DX001 (ip), vehicle: Klucel (hydroxypropylcellulose) (HPC).
The mark [10] stands for this setting: dose: 400.0 mg/kg/injection, schedule: Q01DX001 (ip), vehicle: Klucel (hydroxypropylcellulose) (HPC).
Where [11] appears, read: dose: 100.0 mg/kg/injection, schedule: Q04DX003 (ip), vehicle: saline with Tween-80.
Where [12] appears, read: dose: 200.0 mg/kg/injection, schedule: Q04DX003 (ip), vehicle: saline with Tween-80.

“And” between values parts separate entries of the source, which are not always exact repeats. Identical values can stand only once. Inconclusive results and toxic doses are left out.

In the case of `O=C(Nc1ccc(NC(=O)c2ccccc2)c(Sc2ccccc2)c1Sc1ccccc1)c1ccccc1`, the T/C reads like this: under setting [1], 90 % of control; (dose: 400.0 mg/kg/injection, schedule: Q01DX001 (ip), vehicle: saline with Tween-80) 100 % of control.
For `COc1cc([N+](=O)[O-])c2c(ccc[n+]2C)c1OC`, the T/C reads like this: (dose: 50.0 mg/kg/injection, schedule: Q01DX001 (ip), vehicle: saline with Tween-80) 100 % of control; under setting [1], 91 % of control; (dose: 200.0 mg/kg/injection, schedule: Q01DX001 (ip), vehicle: saline with Tween-80) 112 % of control.
In the case of `O=C(O)/C=C/C(=O)Nc1ccc(I)cc1`, the T/C was 109 % of control under setting [2], 109 % of control under setting [3] and 104 % of control under setting [4].
In the case of `CN(C)c1ccc(NC(=O)C(c2ccccc2)c2ccccc2)cc1`, the T/C reads like this: (dose: 50.0 mg/kg/injection, schedule: Q01DX005 (ip), vehicle: saline) 86 % of control; (dose: 100.0 mg/kg/injection, schedule: Q01DX005 (ip), vehicle: saline) 90 % of control; (dose: 200.0 mg/kg/injection, schedule: Q01DX005 (ip), vehicle: saline) 109 % of control.
For `C[C@]12CC[C@H]3[C@@H](CCC4=CC(=O)CC[C@@]43C)[C@@H]1CC[C@@H]2OC(=O)Cc1ccc(N(CCCl)CCCl)cc1`, the T/C is 104 % of control and 105 % of control (dose: 64.0 mg/kg/injection, schedule: Q01DX009 (ip), vehicle: Klucel (hydroxypropylcellulose) (HPC)); 113 % of control under setting [3]; 111 % of control and 123 % of control (dose: 128.0 mg/kg/injection, schedule: Q01DX009 (ip), vehicle: Klucel (hydroxypropylcellulose) (HPC)); 157 % of control (dose: 256.0 mg/kg/injection, schedule: Q01DX009 (ip), vehicle: Klucel (hydroxypropylcellulose) (HPC)); 120 % of control (dose: 264.0 mg/kg/injection, schedule: Q04DX003 (ip), vehicle: saline with Tween-80); 209 % of control under setting [5]. The T/C under setting [6] was 154 % of control; the T/C (dose: 512.0 mg/kg/injection, schedule: Q01DX009 (ip), vehicle: Klucel (hydroxypropylcellulose) (HPC)) is 115 % of control; the T/C (dose: 600.0 mg/kg/injection, schedule: Q04DX003 (ip), vehicle: saline with Tween-80) is 200 % of control.
In the case of `CCOC(=O)C1=C(C)NC(=O)NC1c1ccc(N=Cc2cc(Br)ccc2O)cc1` (stereo not given), the T/C by setting is: (dose: 75.0 mg/kg/injection, schedule: Q01DX001 (ip), vehicle: saline with Tween-80) 95 % of control; (dose: 150.0 mg/kg/injection, schedule: Q01DX001 (ip), vehicle: saline with Tween-80) 90 % of control; (dose: 300.0 mg/kg/injection, schedule: Q01DX001 (ip), vehicle: saline with Tween-80) 90 % of control.
As to `O=S(=O)(O)O`, the T/C is, setting by setting: (dose: 6.25 mg/kg/injection, schedule: Q01DX009 (ip), vehicle: water) 90 % of control; under setting [7], 124 % of control; (dose: 12.5 mg/kg/injection, schedule: Q01DX009 (ip), vehicle: water) 100 % of control; (dose: 25.0 mg/kg/injection, schedule: Q04DX003 (ip), vehicle: water) 90 % of control; (dose: 100.0 mg/kg/injection, schedule: Q04DX003 (ip), vehicle: water) 90 % of control.
For `Clc1ccc(CSc2ncnc3nc[nH]c23)cc1`, the T/C under setting [3] is 100 % of control and the T/C under setting [4] was 104 % of control.
As to `CCCCCCC(=O)/C=C/c1ccc(N(C)C)cc1`, the T/C reads like this: under setting [3], 97 % of control; under setting [4], 97 % of control; under setting [5], 93 % of control.
Consider `CCOC(=O)C(Br)C(Br)C(=O)OCC` (stereo not given), for which the T/C reads like this: under setting [2], 89 % of control; under setting [3], 104 % of control.
`COC(=O)CCc1ccc(NP(=O)(N2CC2)N2CC2)cc1`: the T/C (dose: 66.0 mg/kg/injection, schedule: Q01DX009 (ip), vehicle: saline with Tween-80) is 177 % of control and the T/C (dose: 300.0 mg/kg/injection, schedule: Q04DX003 (ip), vehicle: saline with Tween-80) was 154 % of control.
In the case of `CCOc1ccc(/C=N\N=C\c2ccc(OCC)cc2)cc1`, the T/C by setting is: (dose: 12.5 mg/kg/injection, schedule: Q01DX009 (ip), vehicle: Klucel (hydroxypropylcellulose) (HPC)) 100 % of control; (dose: 25.0 mg/kg/injection, schedule: Q01DX009 (ip), vehicle: Klucel (hydroxypropylcellulose) (HPC)) 96 % of control; (dose: 100.0 mg/kg/injection, schedule: Q04DX003 (ip), vehicle: Klucel (hydroxypropylcellulose) (HPC)) 109 % of control; (dose: 200.0 mg/kg/injection, schedule: Q04DX003 (ip), vehicle: Klucel (hydroxypropylcellulose) (HPC)) 90 % of control; (dose: 400.0 mg/kg/injection, schedule: Q04DX003 (ip), vehicle: Klucel (hydroxypropylcellulose) (HPC)) 90 % of control.
Regarding `O=[N+]([O-])c1ccc(/C=C/C=C\c2cccc(S(=O)(=O)F)c2)c(Cl)c1`, the T/C reads like this: under setting [8], 90 % of control and 104 % of control; (dose: 100.0 mg/kg/injection, schedule: Q01DX009 (ip), vehicle: acetone) 112 % of control; under setting [9], 93 % of control and 100 % of control; (dose: 200.0 mg/kg/injection, schedule: Q01DX009 (ip), vehicle: acetone) 108 % of control; under setting [10], 100 % of control and 106 % of control; (dose: 400.0 mg/kg/injection, schedule: Q01DX009 (ip), vehicle: acetone) 95 % of control.
In the case of `C#CC(O)C(CC)CCCC` (stereo not given), the T/C under setting [11] was 100 % of control, the T/C under setting [12] was 100 % of control and the T/C under setting [6] is 100 % of control.
Regarding `O=[N+]([O-])c1ccc(/C=[N+](\[O-])CCO)cc1`, the T/C reads like this: (dose: 6.25 mg/kg/injection, schedule: Q01DX009 (ip), vehicle: saline with Tween-80) 101 % of control; under setting [7], 101 % of control; (dose: 25.0 mg/kg/injection, schedule: Q01DX009 (ip), vehicle: saline with Tween-80) 100 % of control.
As to `C(=Nc1ccccc1)c1ccccc1C=Nc1ccccc1`, the T/C by setting is: under setting [11], 104 % of control; under setting [12], 109 % of control; under setting [6], 100 % of control.
In the case of `c1ccc([I+]c2ccccc2)cc1`, the T/C is, setting by setting: (dose: 1.0 mg/kg/injection, schedule: Q01DX009 (ip), vehicle: saline) 100 % of control; (dose: 2.0 mg/kg/injection, schedule: Q01DX009 (ip), vehicle: saline) 104 % of control; (dose: 4.0 mg/kg/injection, schedule: Q01DX009 (ip), vehicle: saline) 90 % of control; (dose: 12.5 mg/kg/injection, schedule: Q04DX003 (ip), vehicle: saline sonified) 115 % of control; (dose: 12.5 mg/kg/injection, schedule: Q04DX003 (sc), vehicle: olive oil, sesame oil, peanut oil) 96 % of control; (dose: 25.0 mg/kg/injection, schedule: Q04DX003 (sc), vehicle: olive oil, sesame oil, peanut oil) 100 % of control.
With `C[N+](C)(Cn1ncc2ccc([N+](=O)[O-])cc21)Cn1ncc2ccc([N+](=O)[O-])cc21`, the T/C under setting [11] was 106 % of control.
`CC(C(=O)c1ccc(Cl)cc1)C(O)(C(F)(F)F)C(F)(F)F` (stereo not given): the T/C is 100 % of control under setting [8], 113 % of control under setting [9] and 113 % of control under setting [10].
On to `CC[C@@H]1C[C@@H]2CN3CCc4c([nH]c5ccc(OC)cc45)C(C(=O)OC)(C2)C13`, for which the T/C was 108 % of control (dose: 50.0 mg/kg/injection, schedule: Q01DX009 (ip), vehicle: Klucel (hydroxypropylcellulose) (HPC)); 113 % of control (dose: 100.0 mg/kg/injection, schedule: Q01DX009 (ip), vehicle: Klucel (hydroxypropylcellulose) (HPC)); 113 % of control (dose: 200.0 mg/kg/injection, schedule: Q01DX009 (ip), vehicle: Klucel (hydroxypropylcellulose) (HPC)).
